Measurements as given in patent US7432375B2, “JNK inhibitors” (Eisai R & D Management Co., Ltd., priority 2003, dated 2008).

Legend:
Type in all cases: biochemical
JNK3 = JNK3 (Homo sapiens, UniProt P53779); assay: JNK3 SPA assay; conditions: phosphorylation of GST-c-Jun, 3.33 μM ATP
Description: (§1) JNK1, JNK2, JNK3—SPA Assay
(§2) • 1. Compound is dissolved in DMSO to a convenient concentration and this is diluted in 10% DMSO to a five times concentrate of the desired starting concentration (frequently 1:100). • 2. 10 μl of 500 mM EDTA is added to alternative wells of the Opti-plate row, which will receive kinase reaction plus DMSO. This creates the negative control. • 3. For the JNK2 and JNK3 assay, compounds are prepared in six 2-fold dilutions with water and each concentration is tested in duplicate. For the JNK1 assay compounds are prepared in four 5-fold dilutions with water which are tested in triplicate. Controls are treated identically. • 4. 20 μl per well of each compound concentration is transferred to an Opti-plate, in duplicate. • 5. 30 μl (JNK2/3 SPA) or 50 μl (JNK1 SPA) of substrate solution (25 mM HEPES pH 7.5, 10 mM magnesium acetate with 3.33 μM ATP (JNK2/3) or 2 μM ATP (JNK1), approximately 7.5 kBq [γ-^33P] ATp, GST-c-Jun, in water) is added to each well. • 6. 50 μl (JNK2/3 SPA) or 30 μl (JNK1 SPA) of kinase solution (JNK in 25 mM HEPES pH 7.5, 10 mM Mg Acetate) is added to each well.
(§3) • 7. The plate is incubated for 30 minutes at room temperature. • 8. 100 μl of bead/stop solution is added to each well (5 mg/ml glutathione-PVT-SPA beads, 40 mM ATP in PBS). • 9. Plates are sealed and incubated for 30 minutes at room temperature, centrifuged for 10 minutes at 2500 g and counted. • 10. The IC50 values are calculated as the concentration of the compound being tested at which the phosphorylation of c-Jun is decreased to 50% of the control value.

JNK2 = JNK2 (Homo sapiens, UniProt P45984); assay: JNK2 SPA assay; conditions: phosphorylation of GST-c-Jun, 3.33 μM ATP
Description: as §1, §2, §3

JNK1 = JNK1 (Homo sapiens, UniProt P45983); assay: JNK1 SPA assay; conditions: phosphorylation of GST-c-Jun, 2 μM ATP
Description: as §1, §2, §3

p38 MAP kinase = biological target: T1, p38 MAP kinase (Homo sapiens, UniProt Q16539); assay: p38 ELISA; conditions: phosphorylation of GST-ATF2, 50 μM ATP
T1 construct: purchased Upstate
Description: Active p38 kinase (100 ng; Upstate) was added to 2 μg GST-ATF2 substrate (NEB) in 250 mM Hepes pH 7.5/100 mM MgAc/50 μM ATP (final) in the presence or absence of compounds in 50 μl. The mixture was incubated at 30° C. for 1 hour, and then diluted with 200 μl PBS-Tween (0.05%). From this, duplicate volumes of 100 μl were added to a Reacti-Bind glutathione coated plate (Pierce) and incubated for 1 hour. After washing 3 times with PBS-Tween (0.05%), rabbit anti-phospho-ATF2 (Thr71) antibody (NEB) was added at 1:500, and incubated for another hour at room temperature. After 3 additional washes with PBS-Tween (0.05%), […] anti-rabbit IgG alkaline phosphatase-conjugated secondary antibody (Sigma) was added at 1:1000, the reaction was incubated for a further hour, washed 3 times, and then phosphatase substrate (Sigma) was added (100 μl per well; 3 tablets in 5 ml water). After incubation in the dark at 37° C. for 1 hour, the reaction mixture was transferred to a clear 96 well plate, and the absorbance at 405 nm was read.
The IC50 values are calculated as the concentration of the compound being tested at which the phosphorylation of ATF2 is decreased to 50% of the control value.

T1 sequence (Q16539 whole entry): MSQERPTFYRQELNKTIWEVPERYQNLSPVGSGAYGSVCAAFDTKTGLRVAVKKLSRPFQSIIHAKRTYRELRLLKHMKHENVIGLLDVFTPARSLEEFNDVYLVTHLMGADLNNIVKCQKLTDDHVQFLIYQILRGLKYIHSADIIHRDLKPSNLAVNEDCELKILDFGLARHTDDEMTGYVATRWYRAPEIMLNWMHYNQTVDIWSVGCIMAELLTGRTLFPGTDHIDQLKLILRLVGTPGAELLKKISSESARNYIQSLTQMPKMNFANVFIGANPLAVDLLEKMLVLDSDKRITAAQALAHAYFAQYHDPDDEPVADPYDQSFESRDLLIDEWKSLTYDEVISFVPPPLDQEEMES
Sequence of JNK3 (P53779 whole entry): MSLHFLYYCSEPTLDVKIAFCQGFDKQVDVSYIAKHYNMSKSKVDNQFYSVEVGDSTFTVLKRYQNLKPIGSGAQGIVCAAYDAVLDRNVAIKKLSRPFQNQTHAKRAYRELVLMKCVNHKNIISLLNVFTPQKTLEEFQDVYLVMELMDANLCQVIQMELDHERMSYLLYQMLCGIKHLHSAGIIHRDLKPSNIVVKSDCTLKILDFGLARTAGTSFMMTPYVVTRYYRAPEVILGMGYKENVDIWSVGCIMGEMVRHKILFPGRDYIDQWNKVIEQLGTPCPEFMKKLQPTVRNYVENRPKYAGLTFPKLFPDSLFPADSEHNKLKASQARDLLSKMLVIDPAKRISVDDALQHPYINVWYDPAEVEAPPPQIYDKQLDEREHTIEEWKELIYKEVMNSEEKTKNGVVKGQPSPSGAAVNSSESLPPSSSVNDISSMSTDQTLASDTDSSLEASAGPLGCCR
Sequence of JNK2 (P45984 whole entry): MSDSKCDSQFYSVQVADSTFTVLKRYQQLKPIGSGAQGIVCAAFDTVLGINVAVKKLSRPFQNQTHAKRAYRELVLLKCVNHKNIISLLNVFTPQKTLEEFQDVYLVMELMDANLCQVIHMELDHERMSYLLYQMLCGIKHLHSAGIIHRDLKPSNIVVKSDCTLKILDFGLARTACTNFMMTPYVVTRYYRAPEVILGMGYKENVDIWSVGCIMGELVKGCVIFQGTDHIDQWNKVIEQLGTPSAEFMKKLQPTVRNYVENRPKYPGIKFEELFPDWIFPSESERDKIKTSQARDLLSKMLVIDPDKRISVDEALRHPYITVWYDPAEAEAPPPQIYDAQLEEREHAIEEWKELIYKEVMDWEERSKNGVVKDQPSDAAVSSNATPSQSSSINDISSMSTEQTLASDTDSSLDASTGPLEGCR
Sequence of JNK1 (P45983 whole entry): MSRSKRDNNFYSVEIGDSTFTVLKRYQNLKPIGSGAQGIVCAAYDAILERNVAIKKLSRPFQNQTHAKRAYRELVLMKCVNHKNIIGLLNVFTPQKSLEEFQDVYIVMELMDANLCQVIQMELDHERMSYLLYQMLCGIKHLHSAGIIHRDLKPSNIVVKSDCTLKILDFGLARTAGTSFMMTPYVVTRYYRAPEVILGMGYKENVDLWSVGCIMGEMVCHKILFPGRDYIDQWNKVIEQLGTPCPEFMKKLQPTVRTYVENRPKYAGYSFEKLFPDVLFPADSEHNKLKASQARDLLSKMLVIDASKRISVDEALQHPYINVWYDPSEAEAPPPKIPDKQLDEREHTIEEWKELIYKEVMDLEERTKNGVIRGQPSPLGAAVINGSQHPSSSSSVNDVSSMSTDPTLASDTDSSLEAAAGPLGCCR

Compound | IC50 (JNK3) [nM] | IC50 (JNK2) [nM] | IC50 (JNK1) [nM] | IC50 (p38 MAP kinase) [nM]
c1csc(-c2cnc3[nH]cc(-c4cncs4)c3c2)c1 | < 500 | < 500 | < 500 | > 10000
Fc1cccc(-c2c[nH]c3ncc(-c4ccccc4Oc4ccccc4)cc23)c1 | < 500 |  |  | 
c1ccc(Oc2ccccc2-c2cnc3[nH]cc(-c4ccccc4)c3c2)cc1 | < 500 |  |  | 

Other lines, results leading:

IC50 (JNK3) [nM] | IC50 (JNK2) [nM] | IC50 (JNK1) [nM] | IC50 (p38 MAP kinase) [nM] | Compound
< 500 | < 500 | < 500 | > 10000 | CN(C)c1ccc(-c2cnc3[nH]cc(-c4ccoc4)c3c2)cc1
< 500 | < 500 | < 500 | > 10000 | c1csc(-c2cnc3[nH]cc(-c4ccoc4)c3c2)c1
< 500 |  |  |  | CN(C)c1ccc(-c2cnc3[nH]cc(-c4cc[nH]c4)c3c2)cc1
